Assay results taken from ChEMBL document CHEMBL1201862, “PubChem BioAssay data set” (2004).
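Protocol summary: plate cells (96-well), add compound at 5 concentrations, incubate 48 h, interpolate endpoints linearly. GI50 marks 50% less growth.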 The source made the active and inactive calls. No stated cut-off is given here; in the data, active = GI50 up to about 1.1 µM and inactive = higher.

What was measured:
Test in all cases: NCI tumour cell line growth inhibition, 48 h
COLO 205 = test system: COLO 205
HCC 2998 = test system: HCC 2998
HCT-116 = test system: HCT-116
LOX IMVI = test system: LOX IMVI
M14 = test system: M14
MCF7 = test system: MCF7
MDA-MB-435 = test system: MDA-MB-435
Malme-3M = test system: Malme-3M
OVCAR-4 = test system: OVCAR-4
OVCAR-5 = test system: OVCAR-5
SF-539 = test system: SF-539
SK-MEL-28 = test system: SK-MEL-28
T47D = test system: T47D
TK-10 = test system: TK-10
U-251 = test system: U-251
CAKI-1 = test system: CAKI-1
KM12 = test system: KM12
OVCAR-3 = test system: OVCAR-3
RPMI-8226 = test system: RPMI-8226
SR = test system: SR

| SMILES | GI50 (COLO 205) | GI50 (HCC 2998) | GI50 (HCT-116) | GI50 (LOX IMVI) | GI50 (M14) | GI50 (MCF7) | GI50 (MDA-MB-435) | GI50 (Malme-3M) | GI50 (OVCAR-4) | GI50 (OVCAR-5) | GI50 (SF-539) | GI50 (SK-MEL-28) | GI50 (T47D) | GI50 (TK-10) | GI50 (U-251) | GI50 (CAKI-1) | GI50 (KM12) | GI50 (OVCAR-3) | GI50 (RPMI-8226) | GI50 (SR) |
| --- | --- | --- | --- | --- | --- | --- | --- | --- | --- | --- | --- | --- | --- | --- | --- | --- | --- | --- | --- | --- |
| CC1CCC(C(C)C2C(O)CC3C4CC=C5CC(O)CCC5(C)C4CCC32C)NC1 (stereo not drawn) | > 100 µM (inactive) | 11.9 µM (inactive) | 45.3 µM (inactive) | 21.3 µM (inactive) | > 100 µM (inactive) | 39.4 µM (inactive) | 30.9 µM (inactive) | 20.6 µM (inactive) | 20.2 µM (inactive) | 89.7 µM (inactive) | 34.2 µM (inactive) | > 100 µM (inactive) | 62.1 µM (inactive) | 14.5 µM (inactive) | 24.4 µM (inactive) |  |  |  |  |  |
| COP(C)(=O)C1=CCN(C(=O)OCC[Si](C)(C)C)CC1 (stereo not drawn) | > 100 µM (inactive) | > 100 µM (inactive) |  | > 100 µM (inactive) | > 100 µM (inactive) | > 100 µM (inactive) | > 100 µM (inactive) | > 100 µM (inactive) | > 100 µM (inactive) | > 100 µM (inactive) |  | > 100 µM (inactive) | > 100 µM (inactive) | > 100 µM (inactive) | > 100 µM (inactive) | > 100 µM (inactive) | > 100 µM (inactive) | > 100 µM (inactive) | > 100 µM (inactive) |  |
| O=C(c1ccccc1)n1c2ccc(Br)cc2c2nc3ccccc3nc21 | > 100 µM (inactive) | > 100 µM (inactive) | > 100 µM (inactive) | > 100 µM (inactive) | > 100 µM (inactive) | 43.8 µM (inactive) | > 100 µM (inactive) | > 100 µM (inactive) | 48.6 µM (inactive) | > 100 µM (inactive) | > 100 µM (inactive) | > 100 µM (inactive) |  | > 100 µM (inactive) | 65 µM (inactive) | > 100 µM (inactive) | > 100 µM (inactive) | 34.9 µM (inactive) | 27.7 µM (inactive) | > 100 µM (inactive) |
| CON(C)C(=O)[C@H]1C[C@@]1(C)CO | > 100 µM (inactive) | > 100 µM (inactive) | > 100 µM (inactive) |  | > 100 µM (inactive) | > 100 µM (inactive) | > 100 µM (inactive) | > 100 µM (inactive) | > 100 µM (inactive) | > 100 µM (inactive) |  | > 100 µM (inactive) | > 100 µM (inactive) | > 100 µM (inactive) | > 100 µM (inactive) | > 100 µM (inactive) | > 100 µM (inactive) | > 100 µM (inactive) |  | > 100 µM (inactive) |
| O[C@@]12Cc3c([nH]c4ccccc34)[C@@H]3Oc4c(-c5ccccc5)ccc5c4[C@@]31CCN(CC1CC1)[C@@H]2C5 | 1.81 µM (inactive) | 1.57 µM (inactive) | 1.73 µM (inactive) | 1.89 µM (inactive) | 1.82 µM (inactive) | 1.83 µM (inactive) | 1.77 µM (inactive) | 1.9 µM (inactive) | 2.71 µM (inactive) | 4.11 µM (inactive) |  | 1.71 µM (inactive) | 2 µM (inactive) |  | 1.71 µM (inactive) | 2.97 µM (inactive) | 1.5 µM (inactive) | 1.49 µM (inactive) | 3.65 µM (inactive) | 2.79 µM (inactive) |
| Cc1nn(C2OC(CO)C(O)C(F)C2O)c(=O)[nH]c1=O (stereo not drawn) | > 100 µM (inactive) | > 100 µM (inactive) | > 100 µM (inactive) | > 100 µM (inactive) | > 100 µM (inactive) | > 100 µM (inactive) | > 100 µM (inactive) | > 100 µM (inactive) | > 100 µM (inactive) | > 100 µM (inactive) | > 100 µM (inactive) | > 100 µM (inactive) | > 100 µM (inactive) | > 100 µM (inactive) | > 100 µM (inactive) | > 100 µM (inactive) |  | > 100 µM (inactive) | > 100 µM (inactive) |  |
| O=C(/C=C/c1ccccc1)c1cc(CN2CCOCC2)c(O)c(CN2CCOCC2)c1 | 11.3 µM (inactive) | 18.6 µM (inactive) | 12.6 µM (inactive) | 4.65 µM (inactive) | 17.9 µM (inactive) | 14.7 µM (inactive) | 14.5 µM (inactive) |  |  | 14.6 µM (inactive) | 15.1 µM (inactive) | 14.5 µM (inactive) | 20 µM (inactive) | 20.6 µM (inactive) | 4.51 µM (inactive) | 2.26 µM (inactive) | 15.5 µM (inactive) | 12.2 µM (inactive) | 4.55 µM (inactive) | 5.51 µM (inactive) |
| CC(C)(C)CN1[C@@H]2CCCC[C@H]2N(CC(C)(C)C)P1(=O)C(O)/C=C/c1ccccc1 (stereo partly drawn) | 17.3 µM (inactive) | 28.5 µM (inactive) | 29.8 µM (inactive) | 18.7 µM (inactive) | 27.1 µM (inactive) | 28.6 µM (inactive) | 42.1 µM (inactive) | 38.5 µM (inactive) | 45.4 µM (inactive) | 50.4 µM (inactive) |  | 76.7 µM (inactive) | 26.1 µM (inactive) | 50.4 µM (inactive) | 41.4 µM (inactive) | 59.8 µM (inactive) | 33.7 µM (inactive) | 34.6 µM (inactive) | 19.5 µM (inactive) |  |
| O=C(O)Cc1ccc2c(c1)/C(=C1/Nc3ccccc3C1=O)C(=O)N2 | 35.1 µM (inactive) | 36.5 µM (inactive) | 24 µM (inactive) | 20 µM (inactive) | 36.6 µM (inactive) | 10.8 µM (inactive) | 36.1 µM (inactive) | 27.4 µM (inactive) | 21.9 µM (inactive) | > 100 µM (inactive) |  | 54.3 µM (inactive) | 7.71 µM (inactive) | > 100 µM (inactive) | 39.6 µM (inactive) | 24.8 µM (inactive) | 29.2 µM (inactive) | 14.1 µM (inactive) | 27.9 µM (inactive) | 21.9 µM (inactive) |
| O=C1C(Cl)=C(Cl)C(Cl)(Cl)C(Cl)C1(Cl)Cl (stereo not drawn) | 17.9 µM (inactive) | 17.3 µM (inactive) | 18.8 µM (inactive) | 19.4 µM (inactive) | 25.6 µM (inactive) | 22.7 µM (inactive) | 23.1 µM (inactive) | 18.8 µM (inactive) |  | 23.2 µM (inactive) | 17.5 µM (inactive) | 23.5 µM (inactive) | 21 µM (inactive) | 19.5 µM (inactive) | 19 µM (inactive) |  | 20.1 µM (inactive) | 17.7 µM (inactive) | 19.6 µM (inactive) |  |
| CC1OC(O[C@H]2C3C=CO[C@@H](OC4OC(CO)C(O)C(O)C4O)C3[C@@]3(COC(=O)/C=C/c4ccccc4)O[C@@H]23)C(O)C(O)C1O (stereo partly drawn) | > 100 µM (inactive) | > 100 µM (inactive) | > 100 µM (inactive) | > 100 µM (inactive) | > 100 µM (inactive) | > 100 µM (inactive) | > 100 µM (inactive) | > 100 µM (inactive) | > 100 µM (inactive) | > 100 µM (inactive) |  | > 100 µM (inactive) | > 100 µM (inactive) | > 100 µM (inactive) | > 100 µM (inactive) | > 100 µM (inactive) | > 100 µM (inactive) | > 100 µM (inactive) | > 100 µM (inactive) |  |
| C[C@]1(S(=O)(=O)c2ccccc2)C[C@H]2N(Cc3ccccc3)[C@@H]1CCC21OCCO1 | 50.5 µM (inactive) |  | > 100 µM (inactive) | > 100 µM (inactive) | > 100 µM (inactive) | 78.9 µM (inactive) | > 100 µM (inactive) | > 100 µM (inactive) | 36.3 µM (inactive) | > 100 µM (inactive) |  | > 100 µM (inactive) | 41.6 µM (inactive) |  | > 100 µM (inactive) | > 100 µM (inactive) | 58.2 µM (inactive) | > 100 µM (inactive) |  |  |
| CC1=C(N2CC2)C(=O)c2nc3n(c2C1=O)CCC3O (stereo not drawn) | 0.41 µM (active) | 0.151 µM (active) | 0.193 µM (active) | 0.619 µM (active) | 1.32 µM (inactive) |  | 0.0188 µM (active) | 0.176 µM (active) | 0.0662 µM (active) | 0.423 µM (active) | 0.254 µM (active) | 0.252 µM (active) | 0.395 µM (active) | 0.09 µM (active) | 0.157 µM (active) | 0.275 µM (active) | 0.233 µM (active) | 0.275 µM (active) | 0.472 µM (active) | 2.25 µM (inactive) |
| CC1(C)CC2(C)OC(=N)C1(C#N)C2(C#N)C#N (stereo not drawn) | 2.56 µM (inactive) | 12.1 µM (inactive) | 7.46 µM (inactive) | 1.68 µM (inactive) | 11.6 µM (inactive) | 8.55 µM (inactive) | 11.9 µM (inactive) | 12.3 µM (inactive) |  | 14.3 µM (inactive) | 12.1 µM (inactive) |  | 10.7 µM (inactive) | 10.8 µM (inactive) | 13.6 µM (inactive) | 1.02 µM (active) | 16 µM (inactive) |  | 5.65 µM (inactive) |  |
| O=C(n1[nH]c(=O)n(-c2ccc([N+](=O)[O-])cc2)c1=O)C(Cl)(Cl)Cl | > 75 µM (inactive) | > 75 µM (inactive) | > 75 µM (inactive) | > 75 µM (inactive) | > 75 µM (inactive) | > 75 µM (inactive) | > 75 µM (inactive) | > 75 µM (inactive) | > 75 µM (inactive) | > 75 µM (inactive) |  | > 75 µM (inactive) | > 75 µM (inactive) | > 75 µM (inactive) | > 75 µM (inactive) | > 75 µM (inactive) | > 75 µM (inactive) | > 75 µM (inactive) | > 75 µM (inactive) | > 75 µM (inactive) |
